Measurements as given in patent publication US20200016200A1, “MODULATING CYTOTOXIC CELL LYTIC GRANULE POSITIONING TO PROMOTE DIFFUSE KILLING IN CELLULAR THERAPIES” (Baylor College of Medicine, priority 2016, published 2020).
“Also recorded” adds a separate entry of the source.

Experiments:
[1] = system: NK92 cells; test: Flow cytometry-based cytotoxicity / bystander killing assay; format: cell-based, human
Method: (§1) Because directed degranulation with converged granules promoted killing efficiency, ciliobrevin D was used to physically prevent convergence in a cell that had received a convergence signal. It was considered that this would allow us to abrogate the killing efficiency benefit imparted by lytic granule convergence. In order to measure killing of both the target and bystander cells in a single experiment, flow cytometry-based cytotoxicity assays were performed, wherein each cell line was labeled with a unique fluorescent dye in the presence of media containing SYTOX Blue viability indicator dye. […] The viability of YTS ([…]), NK92 (FIG. 14E, 14H) and eNK (FIG. 14F, 14I) was not affected by DMSO or ciliobrevin D treatments. […] To ask if it promoted more collateral damage by NK cells 51Cr-labeled Raji cells were added (to serve as innocent bystanders) along with unlabeled 721.221 or K562 target cells. […] YTS or NK92 cells co-cultured with 51Cr-labeled Raji cells in the absence of 721.221 or K562 were unable to kill Raji cells (FIG. 14J). […] Convergence therefore serves to protect innocent bystander cells in complex cellular environments.
(§2) YTS-CD16, NK92-CD16 and eNK cells were labeled with CellTrace CFSE for 10 min at room temperature, washed, and treated with ciliobrevin D or DMSO control as described below in inhibitors. 721.221 and K562 cells were labeled with cell proliferation dye eFluor 670 for 5 min at room temperature. Raji cells were labeled with PKH-26 according to manufacture's protocol. NK cells were then mixed with the corresponding targets and Raji cells at a final volume of 200 μl complete R10 and incubated at 37° C. for 2 hr. Cells were then labeled with SYTOX Blue viability dye for 5 min at room temperature, washed, and run on LSRFortessa flow cytometer (BD).
(§3) Where applicable, YTS, NK92 and eNK cells were pretreated with […] ciliobrevin D (Millipore) for 30 min then washed. DMSO was used as the vehicle control for all inhibitor experiments. The inhibitor was also added into the co-culture with target cells.

[2] = system: eNK cells; test: as above; format: cell-based, human
Method: as §1, §2, §3

[3] = system: YTS cells; test: as above; format: cell-based, human
Method: as §1, §2, §3

[4] = system: CD19 CAR-bearing NK cells; test: Live cell confocal microscopy of lytic granule positioning (LysoTracker Red); format: cell-based; conditions: ciliobrevin D 50 μM vs DMSO, straight out of culture or 0.5 h post cytokine (IL-2) re-addition
Method: FIG. 19. […] Live cell confocal microscopy of CD19 CAR-bearing NK cells treated with DMSO or ciliobrevin D (50 μM). Lytic granule positioning was tracked using LysoTracker Red. […] The culture medium for CD19 CAR NK cells contains IL-2. […] Quantitative analyses of lytic granule distance from the MTOC are shown as a feature of the degree of granule convergence in […].
Specifically, the inventors have shown convergence in CD19 CAR T cells, CD19 CAR NK cells, PSCA CAR T cells, GD2 CAR NKT cells, HER2 CART cells, and glypican CAR T cells (FIG. 15A). Using a measurement of mean granule distance from the MTOC, CAR cells have varying degrees of converged lytic granules (FIG. 15B).

[5] = system: NK92 cells; test: Lytic granule convergence, fixed cell confocal microscopy (granule to MTOC distance); format: cell-based, human; conditions: NK92 conjugated with K562 target cells; ciliobrevin D 100 μM vs vehicle
Source text: (§4) In previous studies, it was shown that granule convergence is dynein-dependent (Mentlik et al., 2010). To further characterize this, regarding the role for convergence in promoting killing efficiency and protecting bystanders, a small molecule dynein inhibitor ciliobrevin D (Firestone et al., 2012) was used to try and block the convergence of lytic granules to the MTOC from their dispersed localization in the cytoplasm. This would allow us to manipulate granule trafficking via blocking the motor protein function, instead of altering activating signal input. YTS, NK92 or eNK cells were treated with either ciliobrevin D or vehicle and conjugated with their respective target cells. […] As a separate measure of granule dispersion, the standard deviation of the granule to MTOC distance was calculated to show the degree of scatter of individual lytic granules. […] CD107a staining was additionally performed to test whether ciliobrevin D treatment affected the exocytosis of lytic granules; the proportion of eNK cells that degranulated after treatment with ciliobrevin D increased (FIG. 13A), whereas in the NK cell lines it decreased (FIG. 13B-13C). In all cases, however, degranulation still occurred in the presence of ciliobrevin D. […]
(§5) Raw image sequences were analyzed using Volocity software. For lytic granules, the centroid of individual lytic granule was designated automatically based on the fluorescence intensity of the corresponding staining (LysoTracker Red or perforin) (Mentlik et al., 2010). For MTOC, in fixed-cell confocal experiments, the point with the highest fluorescence intensity of α-tubulin staining was denoted as the localization of MTOC; in live-cell experiments, the geometric centroid of all the lytic granules in the cell was used to provide a measure of proximity of lytic granule regions. Lytic granule convergence to the MTOC or to the centroid of all granules was measured as previously described (Mentlik et al., 2010). […]

[6] = system: eNK cells; test: as above; format: cell-based, human; conditions: eNK conjugated with K562 target cells; ciliobrevin D 100 μM vs vehicle
Source text: as §4, §5

[7] = system: YTS cells; test: as above; format: cell-based, human; conditions: YTS conjugated with 721.221 target cells; ciliobrevin D 100 μM vs vehicle
Source text: as §4, §5

With N#CC(C(=O)c1ccc(Cl)cc1Cl)=C1NC(=O)c2ccc(Cl)cc2N1 [ciliobrevin D, 2-(7-chloro-4-oxo-3,4-dihydroquinazolin-2(1H)-ylidene)-3-(2,4-dichlorophenyl)-3-oxopropanenitrile] the “viability of NK cells” value ([1]; NK92, standard cytotoxicity and bystander killing assays) was “not affected; also recorded: not different”, the “specific lysis of susceptible target cells” value ([1]; NK92 against K562, Raji bystander cells added, vs DMSO) was “no change in killing; also recorded: not affected” and the “killing of susceptible target cells” value ([1]; NK92 against K562, absence of Raji bystander cells, vs DMSO) was “did not affect killing; also recorded: not affected”. For the same compound, the “non-specific lysis (bystander killing) of Raji cells” value (“non-specific lysis” below) ([1]; NK92 with K562 inciting targets, vs DMSO) was “killing of the bystander Raji cells in a dose-dependent manner; also recorded: increased”, the “specific lysis of susceptible target cells” value ([2]; eNK against K562, Raji bystander cells added, vs DMSO) was “no change in killing; also recorded: not affected” and the “killing of susceptible target cells” value ([2]; eNK against K562, absence of Raji bystander cells, vs DMSO) was “did not affect killing; also recorded: not affected”. For the same compound, the “non-specific lysis” value ([2]; eNK with K562 inciting targets, vs DMSO) was “killing of the bystander Raji cells in a dose-dependent manner; also recorded: increased”, the “viability of NK cells” value ([2]; eNK, standard cytotoxicity and bystander killing assays) was “not affected; also recorded: not different” and the “specific lysis of susceptible target cells” value ([3]; YTS against 721.221, Raji bystander cells added, vs DMSO) was “no change in killing; also recorded: not affected”. The “killing of susceptible target cells” value ([3]; YTS against 721.221, absence of Raji bystander cells, vs DMSO) was “did not affect killing; also recorded: not affected”, the “non-specific lysis” value ([3]; YTS with 721.221 inciting targets, vs DMSO) was “killing of the bystander Raji cells in a dose-dependent manner; also recorded: increased” and the “viability of NK cells” value ([3]; YTS, standard cytotoxicity and bystander killing assays) was “not affected; also recorded: not different”. For the same compound, the “stimulation-induced lytic granule convergence” value [4] was “blocks stimulation-induced convergence”, the “stimulation-induced lytic granule convergence” value ([4]; listed as Ciliobrevin D) was “dispersed lytic granules” and the “lytic granule convergence as determined by mean granule to MTOC distance” value (from here on “lytic granule convergence as determined”) [5] was “blocked lytic granule convergence”. For the same compound, the “lytic granule convergence as determined” value [6] was “blocked lytic granule convergence” and the “lytic granule convergence as determined” value [7] was “blocked lytic granule convergence”.
